The values that follow come from patent publication US6277854A, “Tricyclic antitumor farnesyl protein transferase inhibitors” (Schering Corporation, priority 1999, dated 2001).

In general, IC50 refers to the point on the concentration scale where inhibition reaches its midpoint.

The target of one assay is farnesyl protein transferase. Description: In vitro enzyme assay: inhibition of farnesyl protein transferase (FPT), [3H]farnesyl transfer to Ras-CVLS. The format is biochemical, rat (brain); human (expressed in E. coli).
Conditions: not given
The text has this:
1. In vitro enzyme assays: Inhibition of famesyl protein transferase and geranylgeranyl protein transferase.
Farnesyl protein transferase (FPT) was partially purified from rat brain by ammonium sulfate fractionation followed by Q-Sepharose (Pharmacia, Inc.) anion exchange chromatography essentially as described by Yokoyama et al (Yokoyama, K., et al., (1991), A protein geranylgeranyltransferase from bovine brain: Implications for protein prenylation specificity, Proc. Natl. Acad. Sci USA 88: 5302-5306, the disclosure of which is incorporated herein by reference thereto). Human famesyl protein transferase was also expressed in E. coli, using cDNA clones encoding both the a and b subunits. The methods used were similar to those published (Omer, C. et al., (1993), Characterization of recombinant human famesyl protein transferase: Cloning, expression, farnesyl diphosphate binding, and functional homology with yeast prenyl-protein transferases, Biochemistry 32:5167-5176). Human famesyl protein transferase was partially-purified from the soluble protein fraction of E. coli as described above. […] Two forms of val^12 -Ha-Ras protein were prepared as substrates for these enzymes, differing in their carboxy terminal sequence. One form terminated in cysteine-valine-leucine-serine (Ras-CVLS) the other in cystein-valine-leucine-leucine (Ras-CVLL). Ras-CVLS is a substrate for the famesyl protein transferase while Ras-CVLL is a substrate for geranylgeranyl protein transferase I. The cDNAs encoding these proteins were constructed so that the proteins contain an amino-terminal extension of 6 histidine residues. Both proteins were expressed in Escherichia coli and purified using metal chelate affinity chromatography. The radiolabelled isoprenyl pyrophosphate substrates, [^3 H]farnesyl pyrophosphate and [^3 H]geranylgeranyl pyrophosphate, were purchased from DuPon/New England Nuclear.
Several methods for measuring farnesyl protein transferase activity have been described (Reiss et al 1990, Cell 62: 81; Schaber et al 1990, J. Biol. Chem. 265: 14701; Manne et al 1990, PNAS 87: 7541; and Barbacid & Manne 1993, U.S. Pat. No. 5,185,248). […] The reaction was allowed to proceed for 30 minutes at room temperature and then stopped with 0.5 ml of 4% sodium dodecyl sulfate (SDS) followed by 0.5 ml of cold 30% TCA. Samples were allowed to sit on ice for 45 minutes and precipitated Ras protein was then collected on GF/C filter paper mats using a Brandel cell harvester. Filter mats were washed once with 6% TCA, 2% SDS and radioactivity was measured in a Wallac 1204 Betaplate BS liquid scintillation counter. Percent inhibition was calculated relative to the DMSO vehicle control.
In turn, `NC(=O)N1CCC(C2c3ncc(Br)cc3CCc3cc(Cl)cc(Cl)c32)CC1` (single isomer, unassigned; (+)) [Example 1, (+)-4-(3-BROMO-8,10-DICHLORO-6,11-DIHYDRO-5H-BENZO[5,6]-CYCLOHEPTA[1 ,2-b]PYRIDIN-11-YL)-1-PIPERIDINE CARBOXAMIDE] gave an IC50 of 390 nM. In other words, the sub-micromolar range.
Consider `NC(=O)NCCCC(=O)N1CCC(C2c3ncc(Br)cc3CCc3cc(Cl)cc(Cl)c32)CC1` (single isomer, unassigned; (+)) [Example 31], for which the IC50 came out at 58 nM. This IC50 lies about 6.7-fold lower than the previous one.
In the case of `O=C(CCCC(=O)N1CCC(C2c3ncc(Br)cc3CCc3cc(Cl)cc(Cl)c32)CC1)Nc1cccnc1` (stereo not drawn) [Example 17], the IC50 was roughly 100 nM.
For the molecule `COC(=O)CCC(=O)N1CCC([C@H]2c3ncc(Br)cc3CCc3cc(Cl)cc(Br)c32)CC1` [Example 48, (+)-METHYL 4-(3,10-DIBROMO-8-CHLORO-6,11-DIHYDRO-5H-BENZO[5,6]CYCLO-HEPTA[1,2-b]PYRIDIN-11(R)-YL)-GAMMA-OXO -1-PIPERIDININE BUTANOATE], 9 nM corresponded to half-maximal inhibition (IC50).
For `NC(=O)CCC(=O)N1CCC([C@H]2c3ncc(Br)cc3CCc3cc(Cl)cc(Br)c32)CC1` [Example 50, (+)-4-(3,10-DIBROMO-8-CHLORO-6,11-DIHYDRO-5H-BENZO[5,6]CYCLO-HEPTA[1,2-b]PYRIDIN-11(R)-YL)-GAMMA-OXO -1-PIPERIDININE BUTANAMIDE], the midpoint of inhibition, the IC50, lay at 14 nM.
Molecule `NCCCC(=O)N1CCC(C2c3ncc(Br)cc3CCc3cc(Cl)cc(Cl)c32)CC1` (single isomer, unassigned; (+)) [Example 27, (+)-1-(4-AMINO-1-OXOBUTYL)-4-(3-BROMO-8,10-DICHLORO-6,11-DIHYDRO-5H-BENZO[5,6]CYCLO-HEPTA[1,2-b]PYRIDIN-11-YL) PIPERIDINE] displayed an IC50 of 130 nM.
Turning to `CC(C)(C)OC(=O)NCC(=O)N1CCC(C2c3ncc(Br)cc3CCc3cc(Cl)cc(Cl)c32)CC1` (stereo not drawn) [Example 26], the IC50 stood at 540 nM.
Still for that read-out and setting: to `NCC(=O)N1CCC(C2c3ncc(Br)cc3CCc3cc(Cl)cc(Cl)c32)CC1` (single isomer, unassigned; (+)) [Example 3, (+)-1-(AMINOACETYL)-4-(3-BROMO-8,10-DICHLORO-6,11-DIHYDRO-5H-BENZO[5,6]CYCLO-HEPTA[1,2-b]PYRIDIN-11-YL) PIPERIDINE] belongs 1100 nM; to `O=C(CN1CCCC1=O)N1CCC(C2c3ncc(Br)cc3CCc3cc(Cl)cc(Cl)c32)CC1` (single isomer, unassigned) [Example 10], 19 nM.
For the molecule `O=C(CCN1C(=O)CCC1=O)N1CCC(C2c3ncc(Br)cc3CCc3cc(Cl)cc(Cl)c32)CC1` (single isomer, unassigned) [Example 11], the IC50 stood at 76 nM.
With `CN(C)CC(=O)N1CCC(C2c3ncc(Br)cc3CCc3cc(Cl)cc(Cl)c32)CC1` (single isomer, unassigned) [Example 4], the IC50 was found to be 380 nM.
`O=C(O)CCC(=O)N1CCC([C@H]2c3ncc(Br)cc3CCc3cc(Cl)cc(Br)c32)CC1` [Example 49, (+)-SODIUM 4-(3,10-DIBROMO-B-CHLORO-6,11-DIHYDRO-5H-BENZO[5,6]CYCLO-HEPTA[1,2-b]PYRIDIN-11(R)-YL)-GAMMA-OXO-1-PIPERIDININE BUTANOATE] returned an IC50 of 270 nM.
Consider `O=C(O)CCCC(=O)N1CCC([C@H]2c3ncc(Br)cc3CCc3cc(Cl)cc(Br)c32)CC1` [Example 52, (+)-SODIUM 4-(3,10-DIBROMO-8-CHLORO-6,11-DIHYDRO-5H-BENZO[5,6]CYCLO-HEPTA[1,2-b]PYRIDIN-11(R)-YL)-DELTA-OXO-1-PIPERIDININE PENTANOATE], for which the IC50 was found to be 44 nM.
With `O=C(CCCCCN1C(=O)C=CC1=O)N1CCC(C2c3ncc(Br)cc3CCc3cc(Cl)cc(Cl)c32)CC1` (single isomer, unassigned) [Example 23], the IC50 came out at 620 nM. This IC50 is about 14-fold higher than that of the molecule before.
In turn, `NC(=O)CCCC(=O)N1CCC([C@H]2c3ncc(Br)cc3CCc3cc(Cl)cc(Br)c32)CC1` [Example 53, (+)-4-(3,10-DIBROMO-8-CHLORO-6,11-DIHYDRO-5H-BENZO[5,6]CYCLO-HEPTA[1,2-b]PYRIDIN-11(R)-YL)-DELTA-OXO-1-PIPERIDININE PENTANAMIDE] showed a half-maximal inhibitory concentration (IC50) of 10 nM.
For `CN(C)C(=O)CCC(=O)N1CCC(C2c3ncc(Br)cc3CCc3cc(Cl)cc(Cl)c32)CC1` (single isomer, unassigned) [Example 13], the midpoint of inhibition, the IC50, lay at 15 nM.
On to `COC(=O)CCCCC(=O)N1CCC([C@H]2c3ncc(Br)cc3CCc3cc(Cl)cc(Br)c32)CC1` [Example 54, (+)-METHYL 4-(3,10-DIBROMO-8-CHLORO-6,11-DIHYDRO-5H-BENZO[5,6]CYCLO-HEPTA[1,2-b]PYRIDIN-11(R)-YL)-EPSILON-OXO-1-PIPERIDININE HEXANOATE], for which half-maximal inhibition (IC50) required 15 nM.
For the molecule `O=C(CCC(=O)N1CCC(C2c3ncc(Br)cc3CCc3cc(Cl)cc(Cl)c32)CC1)N1CCCC1` (single isomer, unassigned) [Example 14], it took 16 nM to reach half-maximal inhibition (IC50).
As for `COC(=O)CCCCCC(=O)N1CCC([C@H]2c3ncc(Br)cc3CCc3cc(Cl)cc(Br)c32)CC1` [Example 57, (+)-METHYL 4-(3,10-DIBROMO-8-CHLORO-6,11-DIHYDRO-5H-BENZO[5,6]CYCLO-HEPTA[1,2-b]PYRIDIN-11(R)-YL)-OMEGA-OXO-1-PIPERIDININE HEPTANOATE], it took 11 nM to reach half-maximal inhibition (IC50).
Consider `O=C(NCCCC(=O)N1CCC(C2c3ncc(Br)cc3CCc3cc(Cl)cc(Cl)c32)CC1)Nc1ccccc1` (single isomer, unassigned) [Example 16], for which the IC50 is greater than 100 nM.
`CN(C)CCCC(=O)N1CCC(C2c3ncc(Br)cc3CCc3cc(Cl)cc(Br)c32)CC1` (single isomer, unassigned; (+)) [Example 2, (+)-4-(3,10-DIBROMO-8-CHLORO-6,11-DIHYDRO-5H-BENZO[5,6]-CYCLO-HEPTA[1,2-b]PYRIDIN-11-YL)-1-[4-(DIMETHYLAMINO)-1-OXOBUTYL]PIPERIDINE] displayed an IC50 of 4 nM.
Still for that read-out and setting: with `O=C(O)CCCCC(=O)N1CCC([C@H]2c3ncc(Br)cc3CCc3cc(Cl)cc(Br)c32)CC1` [Example 55, (+)-SODIUM 4-(3,10-DIBROMO-8-CHLORO-6,11-DIHYDRO-5H-BENZO[5,6]CYCLO-HEPTA[1,2-b]PYRIDIN-11(R)-YL)-EPSILON-OXO-1-PIPERIDININE HEXANOATE] the figure was 17 nM.
Regarding `O=C(O)CC(=O)N1CCC([C@H]2c3ncc(Br)cc3CCc3cc(Cl)cc(Br)c32)CC1` [Example 46, (+)-SODIUM 4-(3,10-DIBROMO-8-CHLORO-6,11-DIHYDRO-5H-BENZO[5,6]CYCLO-HEPTA[1,2-b]PYRIDIN-11(R)-YL)-BETA-OXO-1-PIPERIDININE PROPANOATE], 78 nM corresponded to half-maximal inhibition (IC50).
Molecule `COC(=O)CCCC(=O)N1CCC([C@H]2c3ncc(Br)cc3CCc3cc(Cl)cc(Br)c32)CC1` [Example 51, (+)-METHYL 4-(3,10-DIBROMO-8-CHLORO-6,11-DIHYDRO-5H-BENZO[5,6]CYCLO-HEPTA[1,2-b]PYRIDIN-11 (R)-YL)-DELTA-OXO-1-PIPERIDININE PENTANOATE] showed an IC50 of 19 nM.

Still in this assay, the particulars now being: @ 0.06 μg/μL.
In turn, `O=C(NCCCCC(=O)N1CCC(C2c3ncc(Br)cc3CCc3cc(Cl)cc(Cl)c32)CC1)c1ccccc1` (stereo not drawn) [Example 22] had an FPT inhibition of 41%.
Still for that read-out and setting: to `O=C(CCCC(=O)N1CCC(C2c3ncc(Br)cc3CCc3cc(Cl)cc(Cl)c32)CC1)NCc1ccccc1` (single isomer, unassigned) [Example 21] belongs 35%.

Still in this assay, the particulars now being: @ 88 nM.
In turn, `O=C(CCCN1C(=O)c2ccccc2C1=O)N1CCC(C2c3ncc(Br)cc3CCc3cc(Cl)cc(Br)c32)CC1` (single isomer, unassigned; (+)) [Example 32, (+)-4-(3,10-DIBROMO-8-CHLORO-6,11-DIHYDRO-5H-BENZO[5,6]CYCLO-HEPTA[1,2-b]PYRIDIN-11-YL)-1-[4-(1,3-DIHYDRO-1,3-DIOXO-2H-ISOINDOL-2-YL)-1-OXOBUTYL]PIPERIDINE] registered an FPT inhibition of 12%.

Staying with this assay, now noted: @ 92 nM.
Regarding `O=C(CCCC(=O)N1CCC(C2c3ncc(Br)cc3CCc3cc(Cl)cc(Cl)c32)CC1)Nc1ccc(Cl)cc1` (single isomer, unassigned) [Example 20], the FPT inhibition is reported as 0%.

The assay is the same for the next values; noted with them: @ 93 nM.
In turn, `O=C(NCCCC(=O)N1CCC(C2c3ncc(Br)cc3CCc3cc(Cl)cc(Cl)c32)CC1)c1cccnc1` (single isomer, unassigned) [Example 18] displayed an FPT inhibition of 9%.

Staying with this assay, now noted: @ 330 nM.
The molecule `CC(C)(C)OC(=O)NCCCC(=O)N1CCC(C2c3ncc(Br)cc3CCc3cc(Cl)cc(Cl)c32)CC1` (stereo not drawn) [Example 25] displayed an FPT inhibition of 47%.
